Experiments:
Focal adhesion kinase 1 = Focal adhesion kinase 1 (Homo sapiens, UniProt Q05397)
[1] = target: Receptor-type tyrosine-protein kinase FLT3 (Homo sapiens) (UniProt P36888)
[2] = system: eIF-2-alpha kinase GCN2 (Homo sapiens), Q9P2K8 [S808G]
[3] = target: Citron Rho-interacting kinase (Homo sapiens) (UniProt O14578)
[4] = target: Wee1-like protein kinase (Homo sapiens) (UniProt P30291)
[5] = target: Mitogen-activated protein kinase 6 (Homo sapiens) (UniProt Q16659)
[6] = target: MAP kinase-interacting serine/threonine-protein kinase 1 (Homo sapiens) (UniProt Q9BUB5)
[7] = target: Mitogen-activated protein kinase 11 (Homo sapiens) (UniProt Q15759)
[8] = target: Cyclin-dependent kinase 2 homolog (Plasmodium falciparum (isolate 3D7)) (UniProt P61075)
[9] = target: Mitogen-activated protein kinase kinase kinase kinase 4 (Homo sapiens) (UniProt O95819)
[10] = target: Ribosomal protein S6 kinase alpha-6 (Homo sapiens) (UniProt Q9UK32)
[11] = target: RAF proto-oncogene serine/threonine-protein kinase (Homo sapiens) (UniProt P04049)
[12] = target: Fibroblast growth factor receptor 2 (Homo sapiens) (UniProt P21802)
[13] = system: Phosphatidylinositol 4,5-bisphosphate 3-kinase catalytic subunit alpha isoform (Homo sapiens), P42336 [E542K]
[14] = target: Death-associated protein kinase 2 (Homo sapiens) (UniProt Q9UIK4)
[15] = target: Serine/threonine-protein kinase Nek6 (Homo sapiens) (UniProt Q9HC98)
[16] = target: Mitotic checkpoint serine/threonine-protein kinase BUB1 (Homo sapiens) (UniProt O43683)
[17] = system: Phosphatidylinositol 4,5-bisphosphate 3-kinase catalytic subunit alpha isoform (Homo sapiens), P42336 [Q546K]
[18] = target: Leukocyte tyrosine kinase receptor (Homo sapiens) (UniProt P29376)
[19] = target: Leucine-rich repeat serine/threonine-protein kinase 2 (Homo sapiens) (UniProt Q5S007)
[20] = target: Cyclin-dependent kinase-like 2 (Homo sapiens) (UniProt Q92772)
[21] = target: Rhodopsin kinase GRK7 (Homo sapiens) (UniProt Q8WTQ7)
[22] = system: Phosphatidylinositol 4,5-bisphosphate 3-kinase catalytic subunit alpha isoform (Homo sapiens), P42336 [E545K]
[23] = target: Receptor-interacting serine/threonine-protein kinase 2 (Homo sapiens) (UniProt O43353)
[24] = target: Dual specificity protein kinase CLK2 (Homo sapiens) (UniProt P49760)
[25] = target: Serine/threonine-protein kinase WNK4 (Homo sapiens) (UniProt Q96J92)
[26] = target: Cyclin-dependent kinase-like 3 (Homo sapiens) (UniProt Q8IVW4)
[27] = target: Serine/threonine-protein kinase SBK1 (Homo sapiens) (UniProt Q52WX2)
[28] = target: Phosphatidylinositol 3-kinase C2 domain-containing subunit gamma (Homo sapiens) (UniProt O75747)
[29] = target: Tyrosine-protein kinase TXK (Homo sapiens) (UniProt P42681)
[30] = target: Mitogen-activated protein kinase kinase kinase kinase 2 (Homo sapiens) (UniProt Q12851)
[31] = target: Serine/threonine-protein kinase MARK1 (Homo sapiens, UniProt Q9P0L2)
[32] = target: 5-hydroxytryptamine receptor 5A (Homo sapiens) (UniProt P47898); details: Compound concentration 10.0 uM
[33] = target: Interleukin-1 receptor-associated kinase 1 (Homo sapiens) (UniProt P51617)
[34] = target: SNF-related serine/threonine-protein kinase (Homo sapiens) (UniProt Q9NRH2)
[35] = target: Ribosomal protein S6 kinase alpha-1 (Homo sapiens) (UniProt Q15418)
[36] = target: Casein kinase I isoform epsilon (Homo sapiens) (UniProt P49674)
[37] = target: Serine/threonine-protein kinase haspin (Homo sapiens) (UniProt Q8TF76)
[38] = target: Serine/threonine-protein kinase PAK 5 (Homo sapiens) (UniProt Q9P286)
[39] = target: Mitogen-activated protein kinase kinase kinase 2 (Homo sapiens) (UniProt Q9Y2U5)
[40] = system: Proto-oncogene tyrosine-protein kinase receptor Ret (Homo sapiens), P07949 [M918T]
[41] = system: Tyrosine-protein kinase ABL1 (Homo sapiens), P00519 [F317L]
[42] = target: Serine/threonine-protein kinase 32B (Homo sapiens) (UniProt Q9NY57)
[43] = target: Rho-associated protein kinase 2 (Homo sapiens) (UniProt O75116)
[44] = target: Casein kinase I isoform gamma-2 (Homo sapiens) (UniProt P78368)
[45] = Compound concentration 100.0 nM
[46] = Compound concentration 1000.0 nM

Chain of Interleukin-1 receptor-associated kinase 1 (Homo sapiens) (P51617 whole entry, looked up): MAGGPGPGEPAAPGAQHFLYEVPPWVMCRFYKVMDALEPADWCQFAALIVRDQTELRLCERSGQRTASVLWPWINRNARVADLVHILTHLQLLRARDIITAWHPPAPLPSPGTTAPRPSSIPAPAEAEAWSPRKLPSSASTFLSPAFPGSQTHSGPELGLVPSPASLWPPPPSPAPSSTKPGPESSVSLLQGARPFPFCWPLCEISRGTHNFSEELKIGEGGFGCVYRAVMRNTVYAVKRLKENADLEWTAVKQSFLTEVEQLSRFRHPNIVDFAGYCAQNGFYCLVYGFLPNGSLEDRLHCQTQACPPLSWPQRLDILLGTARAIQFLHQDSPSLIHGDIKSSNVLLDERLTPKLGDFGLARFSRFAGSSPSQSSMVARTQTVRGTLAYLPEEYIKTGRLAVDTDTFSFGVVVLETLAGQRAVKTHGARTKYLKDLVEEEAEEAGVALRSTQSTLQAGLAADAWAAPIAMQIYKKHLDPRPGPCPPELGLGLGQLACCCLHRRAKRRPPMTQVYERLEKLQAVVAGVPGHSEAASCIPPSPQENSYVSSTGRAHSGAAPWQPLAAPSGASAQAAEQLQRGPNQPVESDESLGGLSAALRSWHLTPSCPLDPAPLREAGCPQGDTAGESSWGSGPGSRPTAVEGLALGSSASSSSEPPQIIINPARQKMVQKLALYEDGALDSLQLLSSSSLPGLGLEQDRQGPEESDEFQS
Chain of Mitogen-activated protein kinase kinase kinase kinase 4 (Homo sapiens) (O95819 2-1239 limits assumed): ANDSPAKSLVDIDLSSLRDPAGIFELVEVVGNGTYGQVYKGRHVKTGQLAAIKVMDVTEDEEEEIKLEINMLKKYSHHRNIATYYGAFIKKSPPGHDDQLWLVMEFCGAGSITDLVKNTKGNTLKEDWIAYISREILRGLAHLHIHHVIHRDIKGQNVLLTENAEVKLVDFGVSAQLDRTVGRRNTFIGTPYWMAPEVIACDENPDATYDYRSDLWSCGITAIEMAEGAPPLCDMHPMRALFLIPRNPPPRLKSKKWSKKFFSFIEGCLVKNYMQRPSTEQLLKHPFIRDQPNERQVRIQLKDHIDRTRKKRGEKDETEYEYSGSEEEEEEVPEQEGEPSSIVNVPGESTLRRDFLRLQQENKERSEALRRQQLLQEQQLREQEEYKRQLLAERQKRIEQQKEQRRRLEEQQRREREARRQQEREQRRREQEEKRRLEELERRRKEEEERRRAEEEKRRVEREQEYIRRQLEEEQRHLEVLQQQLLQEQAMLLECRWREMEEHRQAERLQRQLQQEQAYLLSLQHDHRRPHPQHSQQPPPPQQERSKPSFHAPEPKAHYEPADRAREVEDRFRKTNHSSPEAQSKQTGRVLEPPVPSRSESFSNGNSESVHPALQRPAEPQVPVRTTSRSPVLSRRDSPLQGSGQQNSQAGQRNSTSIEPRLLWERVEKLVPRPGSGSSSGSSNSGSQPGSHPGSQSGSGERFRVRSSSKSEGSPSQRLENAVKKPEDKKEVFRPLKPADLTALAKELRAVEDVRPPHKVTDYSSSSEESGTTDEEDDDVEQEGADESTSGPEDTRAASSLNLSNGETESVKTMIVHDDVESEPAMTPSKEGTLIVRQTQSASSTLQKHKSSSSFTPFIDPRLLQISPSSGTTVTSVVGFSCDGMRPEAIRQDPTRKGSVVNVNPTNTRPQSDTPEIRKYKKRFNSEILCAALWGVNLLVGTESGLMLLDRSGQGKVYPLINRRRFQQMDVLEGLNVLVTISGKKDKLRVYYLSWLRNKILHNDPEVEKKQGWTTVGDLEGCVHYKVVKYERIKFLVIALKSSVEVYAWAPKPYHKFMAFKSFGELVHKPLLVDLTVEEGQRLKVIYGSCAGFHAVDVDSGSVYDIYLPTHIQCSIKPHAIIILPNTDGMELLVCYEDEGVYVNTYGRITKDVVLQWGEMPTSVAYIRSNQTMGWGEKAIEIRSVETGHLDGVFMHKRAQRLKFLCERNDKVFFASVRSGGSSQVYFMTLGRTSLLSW
Chain of Tyrosine-protein kinase TXK (Homo sapiens) (P42681 whole entry): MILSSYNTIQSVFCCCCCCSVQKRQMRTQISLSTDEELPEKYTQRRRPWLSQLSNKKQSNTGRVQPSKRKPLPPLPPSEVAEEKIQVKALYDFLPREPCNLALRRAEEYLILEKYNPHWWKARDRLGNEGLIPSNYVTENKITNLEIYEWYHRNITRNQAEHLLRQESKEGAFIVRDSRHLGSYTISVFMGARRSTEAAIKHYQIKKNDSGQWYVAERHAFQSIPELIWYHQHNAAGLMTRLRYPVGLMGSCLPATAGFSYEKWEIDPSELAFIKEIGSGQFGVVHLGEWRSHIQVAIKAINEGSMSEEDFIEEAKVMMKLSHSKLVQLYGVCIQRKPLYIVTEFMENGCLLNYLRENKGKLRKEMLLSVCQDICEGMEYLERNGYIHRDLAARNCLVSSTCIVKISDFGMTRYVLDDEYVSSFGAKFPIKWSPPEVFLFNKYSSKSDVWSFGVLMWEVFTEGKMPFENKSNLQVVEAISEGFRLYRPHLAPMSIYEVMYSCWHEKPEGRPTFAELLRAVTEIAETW
Chain of Receptor-type tyrosine-protein kinase FLT3 (Homo sapiens) (P36888 whole entry): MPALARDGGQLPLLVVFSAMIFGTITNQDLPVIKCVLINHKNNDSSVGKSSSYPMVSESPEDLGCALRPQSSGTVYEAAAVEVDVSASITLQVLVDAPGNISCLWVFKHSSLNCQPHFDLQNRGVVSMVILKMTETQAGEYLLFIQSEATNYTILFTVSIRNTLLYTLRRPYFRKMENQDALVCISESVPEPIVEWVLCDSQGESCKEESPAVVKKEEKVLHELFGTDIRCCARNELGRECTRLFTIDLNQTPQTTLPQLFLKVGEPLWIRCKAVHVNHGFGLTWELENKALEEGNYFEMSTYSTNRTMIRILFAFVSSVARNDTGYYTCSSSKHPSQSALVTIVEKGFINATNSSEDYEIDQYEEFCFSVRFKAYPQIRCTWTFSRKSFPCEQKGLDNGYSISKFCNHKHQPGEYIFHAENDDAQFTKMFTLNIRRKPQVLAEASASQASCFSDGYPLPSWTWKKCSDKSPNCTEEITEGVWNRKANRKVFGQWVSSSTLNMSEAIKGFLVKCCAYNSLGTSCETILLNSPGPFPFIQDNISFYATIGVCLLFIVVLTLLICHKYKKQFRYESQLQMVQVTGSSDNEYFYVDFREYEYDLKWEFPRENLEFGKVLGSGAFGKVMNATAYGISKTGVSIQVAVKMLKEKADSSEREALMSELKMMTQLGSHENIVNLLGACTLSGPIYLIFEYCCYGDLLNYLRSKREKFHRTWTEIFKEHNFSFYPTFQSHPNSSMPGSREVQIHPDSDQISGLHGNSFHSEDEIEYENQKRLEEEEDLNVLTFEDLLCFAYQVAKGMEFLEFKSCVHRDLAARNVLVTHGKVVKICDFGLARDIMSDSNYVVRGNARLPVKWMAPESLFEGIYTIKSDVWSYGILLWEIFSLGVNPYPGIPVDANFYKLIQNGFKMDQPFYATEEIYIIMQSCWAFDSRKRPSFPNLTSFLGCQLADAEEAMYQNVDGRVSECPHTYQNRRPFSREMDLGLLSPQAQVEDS
Chain of Phosphatidylinositol 4,5-bisphosphate 3-kinase catalytic subunit alpha isoform (Homo sapiens), P42336 [E545K] (P42336 whole entry E545K, canonical isoform): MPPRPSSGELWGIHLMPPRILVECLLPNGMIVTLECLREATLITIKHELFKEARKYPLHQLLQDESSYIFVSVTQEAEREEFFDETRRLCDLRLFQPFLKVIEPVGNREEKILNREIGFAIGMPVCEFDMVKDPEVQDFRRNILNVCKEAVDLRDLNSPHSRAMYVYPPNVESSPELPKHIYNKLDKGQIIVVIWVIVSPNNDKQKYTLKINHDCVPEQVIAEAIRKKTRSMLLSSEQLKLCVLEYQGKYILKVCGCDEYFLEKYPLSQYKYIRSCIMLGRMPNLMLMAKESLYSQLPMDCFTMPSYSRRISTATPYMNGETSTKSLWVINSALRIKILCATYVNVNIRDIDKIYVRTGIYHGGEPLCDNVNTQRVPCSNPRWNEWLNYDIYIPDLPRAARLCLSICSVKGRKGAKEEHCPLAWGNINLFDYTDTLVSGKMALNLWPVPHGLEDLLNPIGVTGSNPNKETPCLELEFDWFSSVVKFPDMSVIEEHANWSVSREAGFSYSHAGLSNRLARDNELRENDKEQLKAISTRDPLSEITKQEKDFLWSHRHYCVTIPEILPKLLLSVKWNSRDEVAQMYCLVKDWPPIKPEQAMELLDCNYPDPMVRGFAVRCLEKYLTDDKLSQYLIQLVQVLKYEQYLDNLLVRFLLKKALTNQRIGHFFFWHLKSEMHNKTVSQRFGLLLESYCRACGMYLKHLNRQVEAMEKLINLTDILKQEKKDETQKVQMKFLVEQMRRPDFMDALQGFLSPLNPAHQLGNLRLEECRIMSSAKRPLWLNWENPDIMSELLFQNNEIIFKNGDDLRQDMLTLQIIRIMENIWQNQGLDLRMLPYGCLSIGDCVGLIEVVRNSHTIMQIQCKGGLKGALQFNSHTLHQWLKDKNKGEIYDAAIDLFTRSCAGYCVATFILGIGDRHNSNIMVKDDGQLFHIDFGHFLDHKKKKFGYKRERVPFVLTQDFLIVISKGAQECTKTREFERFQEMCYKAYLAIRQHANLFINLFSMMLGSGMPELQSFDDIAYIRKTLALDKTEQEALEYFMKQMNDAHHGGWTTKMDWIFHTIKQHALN
Chain of 5-hydroxytryptamine receptor 5A (Homo sapiens) (P47898 whole entry): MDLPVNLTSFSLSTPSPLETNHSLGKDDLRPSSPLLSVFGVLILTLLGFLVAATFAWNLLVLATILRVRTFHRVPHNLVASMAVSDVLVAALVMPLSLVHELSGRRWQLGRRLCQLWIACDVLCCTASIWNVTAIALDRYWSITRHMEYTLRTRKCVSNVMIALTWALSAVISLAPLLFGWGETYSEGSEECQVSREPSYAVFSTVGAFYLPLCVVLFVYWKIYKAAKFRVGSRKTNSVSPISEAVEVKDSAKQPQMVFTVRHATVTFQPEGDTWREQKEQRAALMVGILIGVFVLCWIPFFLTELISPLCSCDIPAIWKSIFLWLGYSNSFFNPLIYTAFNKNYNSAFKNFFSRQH

CNC(=O)c1ccc(Nc2ncc(C(F)(F)F)c(NCc3nccnc3N(C)S(C)(=O)=O)n2)cc1 [DEFACTINIB]
inactive: residual activity [3, 45] 68% | residual activity [4, 45] 95% | residual activity [5, 45] 71% | residual activity [6, 45] 83% | residual activity [7, 45] 76% | residual activity [8, 45] 89% | residual activity [9, 45] 98% | residual activity [10, 45] 70% | residual activity [11, 45] 97% | residual activity [12, 45] 100% | residual activity [14, 45] 68% | residual activity [15, 45] 81% | residual activity [16, 45] 100% | residual activity [18, 45] 89% | residual activity [19, 45] 60% | residual activity [20, 45] 79% | residual activity [21, 45] 97% | residual activity [22, 45] 100% | residual activity [23, 45] 100% | residual activity [25, 45] 81% | residual activity [26, 45] 92% | residual activity [27, 45] 67% | residual activity [28, 45] 92% | residual activity [29, 45] 98% | residual activity [30, 45] 100% | residual activity [31, 45] 100% | inhibition [32] -1.91% | residual activity [33, 45] 77% | residual activity [34, 45] 100% | residual activity [35, 45] 71% | residual activity [36, 45] 100% | residual activity [37, 45] 100% | residual activity [38, 45] 62% | residual activity [39, 45] 65% | residual activity [40, 45] 72% | residual activity [41, 45] 93% | residual activity [42, 45] 97% | residual activity [43, 45] 100% | residual activity [44, 45] 99%
active: residual activity (Focal adhesion kinase 1; [45]) 0.2% | residual activity [1, 45] 46% | residual activity [2, 45] 27% | residual activity [13, 45] 49% | residual activity [17, 45] 17% | residual activity [24, 45] 0%

CN(c1ccnc(CNc2nc(Nc3ccc4c(c3)CC(=O)N4)ncc2C(F)(F)F)n1)S(C)(=O)=O [PF-00911705]
inactive: residual activity [3, 46] 99% | residual activity [5, 46] 66% | residual activity [7, 46] 85% | residual activity [8, 46] 75% | residual activity [9, 46] 82% | residual activity [11, 46] 85% | residual activity [12, 46] 59% | residual activity [13, 46] 100% | residual activity [14, 46] 58% | residual activity [15, 46] 84% | residual activity [16, 46] 91% | residual activity [17, 46] 93% | residual activity [18, 46] 100% | residual activity [20, 46] 84% | residual activity [22, 46] 100% | residual activity [23, 46] 82% | residual activity [26, 46] 78% | residual activity [28, 46] 77% | residual activity [29, 46] 91% | residual activity [31, 46] 77% | inhibition [32] 1.82% | residual activity [34, 46] 85% | residual activity [35, 46] 68% | residual activity [36, 46] 100% | residual activity [37, 46] 76% | residual activity [38, 46] 76% | residual activity [40, 46] 50% | residual activity [41, 46] 84% | residual activity [42, 46] 100% | residual activity [43, 46] 69% | residual activity [44, 46] 100%
active: residual activity (Focal adhesion kinase 1; [46]) 4.9% | residual activity [1, 46] 23% | residual activity [2, 46] 6.7% | residual activity [4, 46] 13% | residual activity [6, 46] 45% | residual activity [10, 46] 4.6% | residual activity [19, 46] 15% | residual activity [21, 46] 29% | residual activity [24, 46] 0% | residual activity [25, 46] 0% | residual activity [27, 46] 34% | residual activity [30, 46] 39% | residual activity [33, 46] 13% | residual activity [39, 46] 9.7%

Source: ChEMBL document CHEMBL4507299, “Data for DCP probe PF-04554878” (2021)
